# Legend:
# [1] = tested on: metaphysis of the left tibia; conditions: daily intraosseous injections for 14 days; cited from earlier work
# dogs = conditions: local infusion for 3 weeks, 500 to 2000 μg per week; cited from earlier work
# adult beagles = conditions: 0.2 mg in 0.5 ml injected into fracture sites twice a day for 10 days; cited from earlier work
# beagles = conditions: 0.2 mg/kg in 10% ethanol into defect site twice a day for 10 days; cited from earlier work
# beagle male dogs = experiment: Ulnar segmental defect model, enhancement of bone healing in dog; assay type: in vivo
# Description: It is clinically complex to heal segmental bone loss and non-union after fractures or reconstructive surgery. […] The following is a description of the ulnar segmental defect model used to evaluate bone healing in 11±1 kg beagle male dogs, 13 months old.
# Beagle dogs were treated with antiparasitics one week before surgery and were given two doses of Baypamun (Bayer), 72 and 24 hours before the operation. Dogs were divided into four groups of eight animals.
# Group A: 2 ml of phosphate buffered saline (PBS) was injected into the defect area filled with two helistat pre-cut sponges ([…]; 2.5×5 cm) 24, 48 and 72 hours following surgery.
# Group B: 100 mg preparation of test compound was injected into the defect area filled with two helistat pre-cut sponges ([…]; 2.5×5 cm) 24 hours following surgery and for three consecutive days (24, 48 and 72 hours).
# Group C: 100 mg preparation of test compound was injected into the defect area filled with two helistat pre-cut sponges ([…]; 2.5×5 cm) beginning 24 hours following surgery and daily thereafter for seven consecutive days.
# Group D: 100 mg preparation of test compound was injected into the defect area filled with two helistat pre-cut sponges ([…]; 2.5×5 cm) 24 hours following surgery and daily thereafter for 14 days.
# With animals under general anesthesia, the foreleg was prepped and draped in sterile fashion. A lateral incision approximately 10 cm in length was made and the ulna was exposed extraperiostally. Periosteum was cut and moved to the proximal and distal parts of the incision. Then 1.5 cm segmental defect was made in the midulna using a pendular saw. The radius and the remaining interosseal membrane were left intact. The defect site was irrigated with saline to remove bone debris. […] Both created bone ends were firmly stable and the radius served as a weight-bearing bone during the recovery process.
# The site was then filled with the two helistat sponges as described above. In particular two Helistat sponges sized 2.5 times 5 cm were rolled to form a cylinder which was secured outside with fibrin net and two resorbable sutures. In that way subsequent dermal injections had larger areas of absorption. The soft tissues were meticulously closed in layers to aid the sponges. Injections were administered via dermal suture markers in such a way that the needle reached the opposing radius and then pulled back for approximately 5 mm. The total volume per injection was 2 ml consisting either of vehicle (PBS) or test compound in PBS. Following surgery animals were allowed full weight-bearing activity, water and food ad libitum. Radiographs of the forelimbs were obtained immediately following surgery and every two weeks thereafter until the termination of the study. Radiographs were graded on a 0 to 6 scale (Table A).
# Dogs were sacrificed 12 weeks following surgery and the ulna was carefully dissected and fixed in 10% buffered formalin for histological analysis. As expected none of the control dogs re-bridged the defect confirming that the defect was a critical sized defect (Table B). Moreover, the non-union was pronounced permanent at the termination of the study since no significant progress in radiographs was observed between four and twelve weeks following surgery. In the 3-injections groups, none of the defects were re-bridged at the termination of the study. […] Radiographic scoring indicated a score between 2 and three for the dogs in this group.
# Male Sprague-Dawley rats = experiment: Rat periosteal injection model (local injection onto femur subperiosteum); assay type: in vivo; conditions: for BMC: right femur, DEXA
# Description: Male Sprague-Dawley rats at 3 weeks of age were used. The rats were anesthetized with isoflurane inhalation (2-3 minutes) in a conduction chamber located in a fume hood. The right hindlimb of each rat was shaved and cleaned. A 26 G needle attached with a hamilton syringe pre-filled with testing solution was used for the local injection. The solution was injected onto the subperiosteum of the anterior, mid-diaphyseal region of the femur in a volume of 5 to 10 ul for various days. On day 15, the rats were sacrificed and the femurs were collected for analysis. Periosteal bone induction was assessed by using radiography, dual-energy X-ray absorptiometry (DEXA) and/or peripheral quantitative computed tomography (pQCT), and histomorphometry. (Michael E, Joyce, Anita B. Roberts, Michael B. Sporn, and Mark Bolander, “Transforming growth factor-β and the initiation of chondrogenesis and osteogenesis in the rat femur,” The Journal of Cell Biology 110:2195-2207 (1990)).
# The right femurs of male Spray-Dawley rats were injected with either vehicle or test compound for 1, 3, 7, and 14 days, respectively. The solution was prepared using 2% glycine as vehicle at pH of approximately 7.8-7.9. All rats were sacrificed on day 15 and the right femurs were collected for analysis. […] The test compound was (3-(((4-tert-butyl-benzyl)-(pyridine-3-sulfonyl)-amino)-methyl)-phenoxy)-acetic acid, sodium salt;
# The right femur of each rat was injected with test compound for 3, 7 and 14 days, respectively. The left femur of each rat was injected with vehicle to serve as its own control. The solution was prepared using 2% glycine as vehicle at pH of approximately 7.8-7.9. Drug concentration was 80 mg/ml. The injected volume was 5 μl/rat/d (0.4 mg/rat/d). All rats were sacrificed on day 15 and both right and left femurs were collected for analysis. […] The test compound was 7-{[2-(3,5-dichloro-phenoxy)-ethyl]-methanesulfonyl-amino}-heptanoic acid.
# [2] = 14-injections group, eight dogs
# [3] = Group D: 100 mg daily for 14 days, 12 weeks after surgery
smiles,measurement,setting,value
"CCCCC[C@H](O)/C=C/[C@H]1[C@H](O)CC(=O)[C@@H]1C/C=C\CCCC(=O)O [PGE2, Prostaglandin E2]",trabecular bone in the metaphysis,[1],significant increase of trabecular bone
"CCCCC[C@H](O)/C=C/[C@H]1[C@H](O)CC(=O)[C@@H]1CCCCCCC(=O)O [PGE1, prostaglandin E1]",alveolar bone formation in the mandible,dogs,"produced a dramatic, localized formation of alveolar bone"
same,bone matrix formation at fracture site,adult beagles,induced bone matrix formation on the periosteal envelope
same,periosteal and cortical endosteal bone formation,beagles,more periosteal and cortical endosteal bone formation
"CC(C)(C)c1ccc(CN(Cc2cccc(OCC(=O)[O-])c2)S(=O)(=O)c2cccnc2)cc1.[Na+] [CP, (3-(((4-tert-butyl-benzyl)-(pyridine-3-sulfonyl)-amino)-methyl)-phenoxy)-acetic acid, sodium salt]",defects re-bridged at termination of the study,beagle male dogs; 3-injections group,none
same,histological analysis of newly formed bone,beagle male dogs; 3-injections group,complete mineralization of the newly formed bone
same,new bone induction (osteoconduction and periosteal reaction),beagle male dogs; 3-injections group,observed in all the dogs
same,bone formation in the defect area,beagle male dogs; 7-injections group,Both endosteal and periosteal bone formation was observed
same,dogs showing full re-bridgement,beagle male dogs; 7-injections group,none
same,histological analysis of newly formed bone,beagle male dogs; 7-injections group,fully mineralized
same,dogs showing full re-bridgement by x-rays and histology,beagle male dogs; 14-injections group,two of the eight
same,dogs with large amount of new bone formation in defect area but defect not completely filled,beagle male dogs; [2],Three other dogs
same,"dogs with relatively less bone formation, pronounced non-responders",beagle male dogs; [2],Three dogs
same,Bridging/8 dogs,"beagle male dogs; Group B: 100 mg, 3 injections, 12 weeks after surgery",0/8
same,Bridging/8 dogs (medial healing),"beagle male dogs; Group C: 100 mg daily for 7 days, 12 weeks after surgery",1/8 showed medial healing
same,Radiographic Grading/8 dogs,"beagle male dogs; Group D: 100 mg daily for 14 days, 0 to 6 scale",4-6
same,Bridging/8 dogs (good bridging),beagle male dogs; [3],4/8
same,dogs showing almost complete healing,beagle male dogs; [3],Three
same,BMC,"Male Sprague-Dawley rats; 1 day of dosing, sacrifice day 15",0.0469 ± 0.0030 g
same,BMC,"Male Sprague-Dawley rats; 3 days of dosing, sacrifice day 15",0.0446 ± 0.0064 g
same,BMC,"Male Sprague-Dawley rats; 7 days of dosing, sacrifice day 15",0.0485 ± 0.0054 g
same,BMC,"Male Sprague-Dawley rats; 14 days of dosing, sacrifice day 15",0.0533 ± 0.0044 g
same,"excess calcified mass on anterior aspect of right femur, radiography","Male Sprague-Dawley rats; 14 days of treatment, sacrifice day 15",became significant
same,"excess calcified mass on anterior aspect of right femur, radiography","Male Sprague-Dawley rats; injected for 7 days, sacrifice day 15",started to show excess calcified mass
same,periosteal bone formation,"Male Sprague-Dawley rats; one- or three-day treatment, sacrifice day 15",did not result in periosteal bone formation
same,defined region bone area and bone mineral content (BMC) by DEXA compared to vehicle,Male Sprague-Dawley rats; vs vehicle-treated rats (Table I),significantly increased
"CS(=O)(=O)N(CCCCCCC(=O)O)CCOc1cc(Cl)cc(Cl)c1 [7-{[2-(3,5-dichloro-phenoxy)-ethyl]-methanesulfonyl-amino}-heptanoic acid]",local bone formation by radiography,"Male Sprague-Dawley rats; 3-day treatment, eight femurs, 80 mg/ml, 5 μl/rat/d (0.4 mg/rat/d), left femur vehicle control",did not show evidence for increase bone formation locally
same,femurs showing increased calcified area by radiography,"Male Sprague-Dawley rats; 7-day treatment, 80 mg/ml, 5 μl/rat/d (0.4 mg/rat/d), left femur vehicle control",Two out of eight
same,femurs showing increased calcified area locally compared to controls by radiography,"Male Sprague-Dawley rats; 14-day treatment, 80 mg/ml, 5 μl/rat/d (0.4 mg/rat/d), left femur vehicle control",All femurs (n=8)
